In brackets after ≈: the same amount, converted by molar mass. Read-outs that look alike come from different tables or passages of the source.
Legend:
[1] = Lymphocyte viability assay (LCV, MTT) on murine splenocytes; format: cell-based; settings: mouse, splenocytes
Procedure: (§1) Preparation of splenocyte cell suspensions. […] The resulting supernatant was then transferred to another sterile centrifuge tube, and the cell concentration adjusted to 2×10^6 cells/ml dilution with TCM.
(§2) Determination of mycalamide A toxicity. The toxicity of mycalamide A on murine splenocytes and human PBL was determined using a colorimetric assay, based on the ability of viable cells to convert the colorless tetrazolium salt, 3-(4,5-dimethylthiazol-2yl)-2,5-diphenyl tetrazolium bromide (MTT) to a colored formazan product and trypan blue exclusion. For the colorimetric assay, a volume of 0.075 ml of an MTT solution (550 μg/ml of MTT in TCM) was added to test and control wells containing one of the populations of splenocytes or test wells and incubated for 5-6 hours following the initial incubation period. Microtiter plates were centrifuged at 100× g, supernatants carefully removed, and a volume of 0.20 ml of isopropyl alcohol was added to each well to dissolve the formazan crystals. The absorbance at 570 nm was determined for each well using an ELISA plate reader. […] As an additional parameter of toxicity, wells containing cultured lymphocytes with various dilutions of mycalamide A were examined with trypan blue, and the percentage of dye-excluding (viable) cells was determined.

murine splenocytes [2] = assay: as above; format: cell-based; settings: mitogen study, in words
Procedure: as §1, §2

murine splenocytes [3] = assay: Mitogen-induced proliferation of murine splenocytes; format: cell-based; settings: for activity at 0.5 µg/mL / activity at 0.05 µg/mL / activity at 0.005 µg/mL / activity at 0.0005 µg/mL / activity at 50 pg/mL: Mus musculus, Splenocyte; for activity at 0.5 µg/mL: 5.0 × 10^-1 μg/ml; for activity at 0.05 µg/mL: 5.0 × 10^-2 μg/ml; for activity at 0.005 µg/mL: 5.0 × 10^-3 μg/ml; for activity at 0.0005 µg/mL: 5.0 × 10^-4 μg/ml; for activity at 50 pg/mL: 5.0 × 10^-5 μg/ml
Procedure: as §1
Mitogen studies. The effects of mycalamide A on the mitogen-induced proliferation of murine splenocytes was investigated. Splenocytes (2×10^5 /well) from C57BL/6J or BALB/c mice were incubated with 1.0 μg/ml of Con A, 10 μg/ml of phytohemagglutinin (PHA), lipopolysaccharide (LPS) or pokeweed mitogen (PWM) and various concentrations of mycalamide A at 37° C. in a 5% CO2, humidified atmosphere for 90 hours. A volume of […] of a 20.0 μCi/ml of ^3 H-thymidine was added to each well, and the plates incubated for an additional 6 hours. Plates were harvested, and ^3 H-thymidine incorporation determined by counting samples in a liquid scintillation counter.

[4] = system: human peripheral blood lymphocytes (PBL); assay: Mitogen-induced proliferation of human peripheral blood lymphocytes; format: cell-based; settings: Lymphocyte; for activity at 0.5 µg/mL: 5.0 × 10^-1 μg/ml; for activity at 0.05 µg/mL: 5.0 × 10^-2 μg/ml; for activity at 0.005 µg/mL: 5.0 × 10^-3 μg/ml; for activity at 0.0005 µg/mL: 5.0 × 10^-4 μg/ml; for activity at 50 pg/mL: 5.0 × 10^-5 μg/ml; for activity at 5 pg/mL: 5.0 × 10^-6 μg/ml; for activity at 500 fg/mL: 5.0 × 10^-7 μg/ml; for activity at 50 fg/mL: 5.0 × 10^-8 μg/ml; for activity at 5 fg/mL: 5.0 × 10^-9 μg/ml; for activity at 5e-10 µg/mL: 5.0 × 10^-10 μg/ml; for activity at 5e-11 µg/mL: 5.0 × 10^-11 μg/ml
Procedure: Preparation of human peripheral blood leukocyte (PBL) suspensions. Human peripheral blood suspensions were prepared from Leukotrap blood filters as follows: Leukotrap filters containing processed leukocytes from random, unrelated blood donors were obtained from the Indian River Blood Bank (Vero Beach, Fla.). Buffy-coat blood cell suspensions were recovered by reverse-flow phosphate-buffered saline purging and centrifugation for 15 minutes at 475× g. Buffy coats were removed, and 5 ml of the suspension was layered onto 5 ml of Histopaque gradient material. The Histopaque gradients were centrifuged at 475× g for 30 minutes. Lymphocytes were removed from the Histopaque-medium interface, and washed twice with 10 ml of PBS (Dulbecco's phosphate-buffered saline without CaCl2 and MgCl2.6H2 O). The final cell pellet was resuspended in TCM, and the cell concentration adjusted to 2×10^6 cells/ml.

[5] = T cell viability by trypan blue exclusion; format: cell-based, murine; settings: t cells, read-out: percentage of trypan blue-positive cells
Procedure: as §2
(§3) Compounds were added as indicated. Cells were harveste
(§4) Each data point represents the mean value o

T cells = assay: T cell viability by trypan blue exclusion; format: cell-based, murine
Procedure: as §2, §3, §4

[6] = Con A, read-out: Con A, % of control
[7] = LPS, read-out: LPS, % of control
[8] = PHA, read-out: PHA, % of control
[9] = PWM, read-out: PWM, % of control

With `C=C1CC(OC)(C(O)C(=O)NC2OCOC3C2OC(CC(O)CO)C(C)(C)C3OC)OC(C)C1C` (stereo not drawn) [Mycalamide A, mycalamide A] the viability ([1]; MLR, 5.0 × 10^0 μg/ml, MTT, read-out: % Viability (LCV)) was 0%, the viability ([1]; MLR, 5.0 × 10^1 μg/ml, MTT, read-out: % Viability (LCV)) was 0% and the viability ([1]; MLR, 5.0 × 10^2 μg/ml, MTT, read-out: % Viability (LCV)) was 0%. The viability ([1]; MLR, 5.0 × 10^-1 μg/ml, MTT, read-out: % Viability (LCV)) was 55%, the viability ([1]; MLR, 5.0 × 10^-2 μg/ml, MTT, read-out: % Viability (LCV)) was 79% and the viability ([1]; MLR, 5.0 × 10^-3 μg/ml, MTT, read-out: % Viability (LCV)) was 66%. It also gave a viability ([1]; MLR, 5.0 × 10^-4 μg/ml, MTT, read-out: % Viability (LCV)) of 62%, a viability ([1]; MLR, 5.0 × 10^-5 μg/ml, MTT, read-out: % Viability (LCV)) of 63% and a viability ([1]; MLR, 5.0 × 10^-6 μg/ml, MTT, read-out: % Viability (LCV)) of 83%. The viability ([1]; MLR, 5.0 × 10^-7 μg/ml, MTT, read-out: % Viability (LCV)) was 71%, the viability ([1]; MLR, 5.0 × 10^-8 μg/ml, MTT, read-out: % Viability (LCV)) was 100% and the viability ([1]; MLR, 5.0 × 10^-9 μg/ml, MTT, read-out: % Viability (LCV)) was over 99%. It also gave a viability ([1]; MLR, 5.0 × 10^-10 μg/ml, MTT, read-out: % Viability (LCV)) of over 99%, a viability ([1]; MLR, 5.0 × 10^-11 μg/ml, MTT, read-out: % Viability (LCV)) of over 99% and a viability ([1]; MLR, 5.0 × 10^-12 μg/ml, MTT, read-out: % Viability (LCV)) of over 99%. For the same molecule, the viability ([1]; MLR, 5.0 × 10^-13 μg/ml, MTT, read-out: % Viability (LCV)) was over 99%, the viability ([1]; MLR, 5.0 × 10^-14 μg/ml, MTT, read-out: % Viability (LCV)) was over 99% and the viability ([1]; MLR, 5.0 × 10^-15 μg/ml, MTT, read-out: % Viability (LCV)) was over 99%. For the same molecule, the viability ([1]; MLR, 5.0 × 10^-16 μg/ml, MTT, read-out: % Viability (LCV)) was over 99%, the viability ([1]; MLR, 5.0 × 10^-17 μg/ml, MTT, read-out: % Viability (LCV)) was over 99% and the viability ([1]; MLR, 5.0 × 10^-18 μg/ml, MTT, read-out: % Viability (LCV)) was over 99%. The viability ([1]; MLR, 5.0 × 10^-19 μg/ml, MTT, read-out: % Viability (LCV)) was over 99%, the viability ([1]; mitogen study, 5.0 × 10^0 μg/ml, read-out: LCV, % viability) was 1% and the viability ([1]; mitogen study, 5.0 × 10^1 μg/ml, read-out: LCV, % viability) was 2%. The viability ([1]; mitogen study, 5.0 × 10^2 μg/ml, read-out: LCV, % viability) was 3%, the viability ([1]; mitogen study, 5.0 × 10^-1 μg/ml, read-out: LCV, % viability) was 4% and the viability ([1]; mitogen study, 5.0 × 10^-2 μg/ml, read-out: LCV, % viability) was 3%. The viability ([1]; mitogen study, 5.0 × 10^-3 μg/ml, read-out: LCV, % viability) was 3%, the viability ([1]; mitogen study, 5.0 × 10^-4 μg/ml, read-out: LCV, % viability) was 4% and the viability ([1]; mitogen study, 5.0 × 10^-5 μg/ml, read-out: LCV, % viability) was 180%. For the same molecule, the “toxicity by LCV assay” value (murine splenocytes [2]; 5×10^-5 μg/ml) was “no toxicity”, the “toxicity to the cells” value (murine splenocytes [2]; greater than 5×10^-5 μg/ml) was “toxic to the cells” and the “suppression of Con A, LPS, and PWM stimulation” value (murine splenocytes [3]; 5×10^-5 μg/ml, Con A, LPS, PWM, in words) was “suppressed”. It also gave an activity at 0.5 µg/mL (murine splenocytes [3]; [6]) of 0%, an activity at 0.05 µg/mL (murine splenocytes [3]; [6]) of 0% and an activity at 0.005 µg/mL (murine splenocytes [3]; [6]) of 0%. It also gave an activity at 0.0005 µg/mL (murine splenocytes [3]; [6]) of 0%, an activity at 50 pg/mL (murine splenocytes [3]; [6]) of 0% and an activity at 0.5 µg/mL (murine splenocytes [3]; [7]) of 0%. The activity at 0.05 µg/mL (murine splenocytes [3]; [7]) was 0%, the activity at 0.005 µg/mL (murine splenocytes [3]; [7]) was 0% and the activity at 0.0005 µg/mL (murine splenocytes [3]; [7]) was 0%. It also gave an activity at 50 pg/mL (murine splenocytes [3]; [7]) of 68%, an activity at 0.5 µg/mL (murine splenocytes [3]; [8]) of 0% and an activity at 0.05 µg/mL (murine splenocytes [3]; [8]) of 0%. It also gave an activity at 0.005 µg/mL (murine splenocytes [3]; [8]) of 0%, an activity at 0.0005 µg/mL (murine splenocytes [3]; [8]) of 38% and an activity at 50 pg/mL (murine splenocytes [3]; [8]) of 139%. The activity at 0.5 µg/mL (murine splenocytes [3]; [9]) was 0%, the activity at 0.05 µg/mL (murine splenocytes [3]; [9]) was 0% and the activity at 0.005 µg/mL (murine splenocytes [3]; [9]) was 0%. For the same molecule, the activity at 0.0005 µg/mL (murine splenocytes [3]; [9]) was 0%, the activity at 50 pg/mL (murine splenocytes [3]; [9]) was 62% and the activity at 0.5 µg/mL [4, 6] was 0%. It also gave an activity at 0.05 µg/mL [4, 6] of 0%, an activity at 0.005 µg/mL [4, 6] of 0% and an activity at 0.0005 µg/mL [4, 6] of 10%. It also gave an activity at 50 pg/mL [4, 6] of 44%, an activity at 5 pg/mL [4, 6] of 74% and an activity at 500 fg/mL [4, 6] of 78%. The activity at 50 fg/mL [4, 6] was 82%, the activity at 5 fg/mL [4, 6] was 90% and the activity at 5e-10 µg/mL [4, 6] was 99%. For the same molecule, the activity at 5e-11 µg/mL [4, 6] was 93%, the activity at 0.5 µg/mL [4, 8] was 0% and the activity at 0.05 µg/mL [4, 8] was 0%. The activity at 0.005 µg/mL [4, 8] was 0%, the activity at 0.0005 µg/mL [4, 8] was 9% and the activity at 50 pg/mL [4, 8] was 41%. For the same molecule, the activity at 5 pg/mL [4, 8] was 41%, the activity at 500 fg/mL [4, 8] was 40% and the activity at 50 fg/mL [4, 8] was 43%. It also gave an activity at 5 fg/mL [4, 8] of 42%, an activity at 5e-10 µg/mL [4, 8] of 36% and an activity at 5e-11 µg/mL [4, 8] of 47%. For the same molecule, the IC50 ([4]; read-out: IC50, PHA stimulation of human PBL) was about 0.0057 ng/mL (≈ 0.0113 nM), the cytotoxicity at 20 h, 1e-06 µM ([5]; 1 pM, Experiment 1, 20 hours) was under 2% and the cytotoxicity at 20 h, 5e-06 µM ([5]; 5 pM, Experiment 1, 20 hours) was under 2%. For the same molecule, the cytotoxicity at 20 h, 1e-05 µM ([5]; 10 pM, Experiment 2, 20 hours) was under 2%, the “number of cells excluding trypan blue” value (T cells; 1 pM, Experiment 1, 20 hours) was 1.39 × 10^6 cells and the “number of cells excluding trypan blue” value (T cells; 1 pM, Experiment 2, 20 hours) was 1.45 × 10^6 cells. For the same molecule, the “percentage of trypan blue-positive cells” value (T cells; 1 pM, Experiment 2, 20 hours) was under 2%, the “number of cells excluding trypan blue” value (T cells; 5 pM, Experiment 1, 20 hours) was 1.41 × 10^6 cells and the “number of cells excluding trypan blue” value (T cells; 5 pM, Experiment 2, 20 hours) was 1.68 × 10^6 cells. For the same molecule, the “percentage of trypan blue-positive cells” value (T cells; 5 pM, Experiment 2, 20 hours) was under 2%, the “number of cells excluding trypan blue” value (T cells; 10 pM, Experiment 2, 20 hours) was 1.49 × 10^6 cells and the “effect on T cell viability” value (T cells; trypan blue exclusion, in words) was “did not significantly affect the cell viability”.

From patent US5298523A, “Method for treating transplant patients using mycalamide compounds” (priority 1992, dated 1994)
